Like-named read-outs stand apart in the source and are kept apart here.

For orientation: Ki means the dissociation constant of the complex between target and ligand, obtained from inhibition or displacement.

Assay [1] concerns the target Myeloid Cell Leukemia 1 (Mcl-1) (Homo sapiens, UniProt Q07820). The experiment in a line: Terbium labeled Mcl-1 HTRF binding assay utilizing the Cy5-labeled BIM BH3 peptide. How it is done: Terbium labeled Myeloid Cell Leukemia 1(Mcl-1) homogeneous time-resolved fluorescence (HTRF) binding assay utilizing the BIM BH3 peptide (H2N—(C/Cy5Mal) WIAQELRRIGDEFN-OH) as the binding partner for Mcl 1.
This assay evaluated inhibition of the BH3 domain: Mcl-1 interaction by measuring the displacement of Cy5-labeled BIM BH3 peptide (H2N—(C/Cy5Mal) WIAQELRRIGDEFN-OH) in the HTRF assay format.
The following assay and stock buffers were prepared for use in the assay: (a) Stock buffer: 10 mM Tris—HCl, pH=7.5+150 mM NaCl, filtered, sterilized, and stored at 4° C.; and (b) 1X assay buffer, where the following ingredients were added fresh to stock buffer: 2 mM dithiothreitol (DTT), 0.0025% Tween-20, 0.1 mg/mL bovine serum albumin (BSA). The 1X Tb—Mcl-1+Cy5 Bim peptide solution was prepared by diluting the protein stock solution using the 1X assay buffer (b) to 25 pM Tb—Mcl-1 and 8 nM Cy5 Bim peptide.
Using the Acoustic ECHO, 100 nL of 100x test compound(s) were dispensed into individual wells of a white 384-well Perkin Elmer Proxiplate, for a final compound concentration of 1x and final DMSO concentration of 1%. Inhibitor control and neutral control (NC, 100 nL of 100% DMSO) were stamped into columns 23 and 24 of assay plate, respectively. Into each well of the plate was then dispensed 10 μL of the 1X Tb—Mcl-1+Cy5 Bim peptide solution. The plate was centrifuged with a cover plate at 1000 rpm for 1 minute, then incubated for 60 minutes at room temperature with plates covered. The TR-FRET signal was read on an BMG PHERAStar FSX MicroPlate Reader at room temperature using the HTRF optic module (HTRF: excitation: 337 nm, light source: laser, emission A: 665 nm, emission B: 620 nm, integration start: 60 μs, integration time: 400 μs).
The BMG PHERAStar FSX MicroPlate Reader was used to measure fluorescence intensity at two emission wavelengths—665nm and 620 nm—and report relative fluorescence units (RFU) for both emissions, as well as a ratio of the emissions (665 nm/620 nm)*10,000. The RFU values were normalized to percent inhibition as follows:
% inhibition=(((NC−IC)−(compound−IC))/(NC−IC))*100
where IC (inhibitor control, low signal)=mean signal of 1X Tb—MCl-1+Cy5 Bim peptide+inhibitor control or 100% inhibition of Mcl-1; NC (neutral control, high signal)=mean signal 1X Tb—MCl-1+Cy5 Bim peptide with DMSO only or 0% inhibition An 11-point dose response curve was generated to determine IC50 values (using GenData) based on the following equation:
Y=Bottom+(Top−Bottom)/(1+10((logIC50−X)*HillSlope))
where Y=% inhibition in the presence of X inhibitor concentration; Top=100% inhibition derived from the IC (mean signal of Mcl-1+inhibitor control); Bottom=0% inhibition derived from the NC (mean signal of Mcl-1+DMSO); Hillslope=Hill coefficient; and IC50=concentration of compound with 50% inhibition in relation to top/neutral control (NC).
In this assay [L]=8 nM and Kd=10 nM
In general terms: In TR-FRET formats the signal depends on donor and acceptor labels being close together.

The test system of the next assay is MOLP8 cells. The experiment in a line: MOLP8 CellEvent Caspase-3/7 Green live-cell IncuCyte apoptosis assay. To be noted: averaged, number of independent runs in brackets. In kind it is cell-based, human. As to the method: (§1) MCL-1 is a regulator of apoptosis and is highly over-expressed in tumor cells that escape cell death. The assay evaluates the cellular potency of small-molecule compounds targeting regulators of the apoptosis pathway, primarily MCL-1, Bfl-1, Bcl-2, and other proteins of the Bcl-2 family. Protein-protein inhibitors disrupting the interaction of anti-apoptotic regulators with BH3-domain proteins initiate apoptosis.
Activation of the apoptotic pathway was measured using the CellEvent™ Caspase-3/7 Green ReadyProbes™ Reagent (Thermo Fisher C10423, C10723). This assay produces a green fluorescent stain in cells that enter the apoptosis pathway. CellEvent® Caspase-3/7 Green reagent is a four amino acid peptide (DEVD) conjugated to a nucleic acid-binding dye that is non-fluorescent when not bound to DNA. The CellEvent® Caspase-3/7 Green reagent is intrinsically non-fluorescent, as the DEVD peptide inhibits binding of the dye to DNA. Upon activation of caspase-3/7 in apoptotic cells, the DEVD peptide is cleaved and the free dye can bind DNA, generating a bright green fluorescence. The activation of Caspase-3 and Caspase-7 is downstream of inhibition of MCL-1 or other apoptosis inhibiting proteins in cell lines that are dependent on them.
The live-cell readout on the IncuCyte permits tracking over time of the Caspase activation. […] The IncuCyte readout also allows one to normalize for cell number, as the suspension cells are hard to distribute evenly.
Signals were measured every 2 h for a duration of 22 h. The ratio of the Caspase mask to the Confluence mask, per image, as raw data, was calculated and the kinetic trace for every well was exported to Genedata Screener for analysis.
In Genedata Screener values for 6 h, 12 h, and 22 h from the kinetic traces were extracted. The values were normalized against negative controls (untreated cells). A standard dose-response analysis was performed on the normalized data.
The following data was reported at each of the following three aforementioned time points: (a) The dose-response curve, (b) The qAC50 and qAC50 Mode, and (c) Max Activity.
Cells were maintained in culture medium containing 10% Heat Inactivated (HI) FBS, 2 mM L-Glutamine and 50 μg/mL Gentamycin phenol red free RPMI-1640. Cells were split at 0.4 million/mL twice a week.
On Day 1, plates containing individual wells with test compounds at 10 mM concentration, 150 nL per well. The final concentrations range from […] to 10 pM compound (and no compound control) and compounds were thawed at room temperature for 1 hour. 25 μl of prewarmed medium was added into each well by multidrop (column 1, 3-22, 24), followed by addition of DMSO control (0.6% DMSO) in column 2. The plate was sealed using Breathe-Easy®) sealing membrane and shaken for 30 min at room temperature to dissolve the test compound(s) in medium. The plate was then kept in the incubator for 1 hour at 37° C., 5% CO2.
MOLP8 cells in medium at 40000/25 μl (20000/50 μl final in assay) were prepared with CellEvent™ Caspase-3/7 Green Detection Reagent at 4 μM (2 μM final in assay). Once prepared, the cells were added to the test compound plate in an amount of 20000 and the plate was immediately placed in the IncuCyte and imaging started using following settings: 10X objective, 2 s exposure time in green channel, interval of 2 h, acquisition stopped after 22 h.
For analysis in IncuCyte, a Basic Analysis protocol was defined to calculate the “confluence” and “caspase” areas from the “Phase” and “green” images, respectively, as follows: (a) Confluence: Segmentation Adjustment 1, Hole Fill 0, Adjust Size −2, No filters (b) Caspase: Top-Hat segmentation, Radius 10, Threshold 0.3 GCU, Edge Split On with sensitivity 0, Hole Fill 0, Adjust Size 1, and filter on a minimum Area of 20 μm. The analyzer is trained on a sufficient number of positive and negative control wells, as well as compound treated wells, verifying that the “confluence” layer detects both live and dead (condensed) cells. […]

Assay [2] relates to MOLP-8 human multiple myeloma cell line. Nature of the assay: MOLP8 Caspase-Glo 3/7 luminescent assay. It counts as cell-based. To be noted: MOLP8 cells, 2 hours incubation, 10% FBS assay media, 30 μM highest conc.; averaged over all runs on all batches.
Text: as §1
The Caspase-Glo® 3/7 Assay is a luminescent assay that measures caspase-3 and -7 activities in purified enzyme preparations or cultures of adherent or suspension cells. The assay provides a proluminescent caspase-3/7 substrate, which contains the tetrapeptide sequence DEVD. This substrate is cleaved to release aminoluciferin, a substrate of luciferase used in the production of light. Addition of the single Caspase-Glo® 3/7 Reagent in an “add-mix-measure” format results in cell lysis, followed by caspase cleavage of the substrate and generation of a “glow-type” luminescent signal. This assay uses the MOLP-8 human multiple myeloma cell line, which is sensitive to MCL-1 inhibition.
Cell cultures were maintained between 0.2 and 2.0×10^6 cells/mL. The cells were harvested by collection in 50 mL conical tubes. The cells were then pelleted at 500 g for 5 mins before removing supernatant and resuspension in fresh pre-warmed culture medium. The cells were counted and diluted as needed.
The assay reagent was prepared by transferring the buffer solution to the substrate vial and mixing. The solution may be stored for up to 1 week at 4° C. with negligible loss of signal.
Compounds were delivered in assay-ready plates (Proxiplate) and stored at −20° C. Assays always include 1 reference compound plate containing reference compounds. The plates were spotted with 40 nL of compounds (0.5% DMSO final in cells; serial dilution; 30 μM highest conc. 1/3 dilution, 10 doses, duplicates). […] The plates were then sealed and measured after 30 minutes.
The activity of a test compound was calculated as percent change in apoptosis induction as follows: […]

The mark [3] stands for this setting: Ki=IC50/(1+[L]/Kd), [L]=8 nM, Kd=10 nM, first table (before recalibration of the equipment).
Where [4] appears, read: values obtained after recalibration of the equipment, averaged over several runs.
[5] abbreviates: 6 h, read-out: MOLP8 Caspase 3/7 AC50 at 6 h.
Setting [6] is: 12 h, read-out: MOLP8 Caspase 3/7 AC50 at 12 h.
Setting [7] is: 22 h, read-out: MOLP8 Caspase 3/7 AC50 at 22 h.

Myeloid Cell Leukemia 1 (Mcl-1), sequence (Q07820 whole entry, the tested form may be a part): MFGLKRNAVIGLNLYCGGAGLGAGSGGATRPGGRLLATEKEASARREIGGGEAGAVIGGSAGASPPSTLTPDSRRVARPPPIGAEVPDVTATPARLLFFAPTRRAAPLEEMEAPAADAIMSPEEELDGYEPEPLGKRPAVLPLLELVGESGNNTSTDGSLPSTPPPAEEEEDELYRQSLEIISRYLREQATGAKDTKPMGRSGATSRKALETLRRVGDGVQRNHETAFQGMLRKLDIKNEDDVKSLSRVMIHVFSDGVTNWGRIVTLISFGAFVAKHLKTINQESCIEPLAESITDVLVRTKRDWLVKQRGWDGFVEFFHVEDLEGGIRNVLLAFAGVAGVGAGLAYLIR

In the case of `Cc1c2c(nn1C)CN(C)Cc1cc(n(C)n1)CS(=O)(=O)c1cc(c3ccccc3c1)OCCCc1c(C(=O)O)n(C)c3c-2c(Cl)ccc13` (single isomer, unassigned) [Compound 1], the Ki in assay [1] (setting [3]) worked out at 0.62 nM; in assay [1] (setting [4]), 0.56 nM. For the same compound, the AC50 with MOLP8 cells (setting [5]) came out at 4470 nM; in the assay on MOLP8 cells (setting [6]), 5580 nM; in the assay on MOLP8 cells (setting [7]), 5750 nM; in assay [2], 3900 nM.

On to `Cc1c2c(nn1C)CN(C)Cc1cc(n(C)n1)CS(=O)(=O)c1cc(c3ccccc3c1)OCCCc1c(C(=O)O)n(C)c3c-2c(Cl)ccc13` (single isomer, unassigned) [Compound 2], for which the Ki in assay [1] (setting [3]) was found to be 86.3 nM; in assay [1] (setting [4]), 153 nM. Besides, the AC50 in the assay on MOLP8 cells (setting [5]), with MOLP8 cells (setting [6]) and with MOLP8 cells (setting [7]) was greater than 30200 nM each time.

Compound `Cc1c2c(nn1C)CS(=O)(=O)Cc1cc(n(C)n1)CSc1cc(c3ccccc3c1)OCCCc1c(C(=O)O)n(C)c3c-2c(Cl)ccc13` (single isomer, unassigned) [Compound 3] came in with a Ki in assay [1] (setting [4]) of 0.04 nM. Moreover, the AC50 in the assay with MOLP8 cells (setting [5]) turned out to be 680 nM; in the assay with MOLP8 cells (setting [6]), 620 nM; in the assay on MOLP8 cells (setting [7]), 540 nM; in assay [2], 400 nM.

For `Cc1c2c(nn1C)CS(=O)(=O)Cc1cc(n(C)n1)CSc1cc(c3ccccc3c1)OCCCc1c(C(=O)O)n(C)c3c-2c(Cl)ccc13` (single isomer, unassigned) [Compound 4], the Ki turned out to be 1.7 nM in assay [1] (setting [3]) and 3 nM in assay [1] (setting [4]). Besides, the AC50 amounted to 18600 nM in the assay on MOLP8 cells (setting [5]), 20200 nM with MOLP8 cells (setting [6]), 21600 nM in the assay on MOLP8 cells (setting [7]) and 14100 nM in assay [2].
